As a reminder, the IC50 is the midpoint of a concentration-inhibition curve.

Among the data in ChEMBL document CHEMBL4219058, “Discovery of new thienopyrimidine derivatives as potent and orally efficacious phosphoinositide 3-kinase inhibitors” (Bioorg Med Chem, 2018) are IC50 and Papp values, retold here.

For one data set, the system named is U-87 MG. Briefly: Antiproliferative activity against human U87MG cells after 4 days by Celltiter-Glo luminescence cell viability assay. It counts as functional, cell-based, U-87MG ATCC. Conditions: 96 h. Background: ATP-based viability assays read luminescence as a measure of living cells.
Data set [1] concerns the target Phosphatidylinositol 4,5-bisphosphate 3-kinase catalytic subunit gamma isoform (Homo sapiens, UniProt P48736). Briefly: Inhibition of PI3Kgamma (unknown origin) using PIP2 as substrate measured after 1 hr by Kinase-Glo luminescence assay.
Data set [2] can be described thus: Effective permeability of the compound measured after 5 hrs by PAMPA. It is filed as ADME. Conditions: read-out: Peff. On the technique in general: In PAMPA a lipid-coated filter parts donor from acceptor wells.

Sequence of Phosphatidylinositol 4,5-bisphosphate 3-kinase catalytic subunit gamma isoform (P48736 whole entry, canonical isoform): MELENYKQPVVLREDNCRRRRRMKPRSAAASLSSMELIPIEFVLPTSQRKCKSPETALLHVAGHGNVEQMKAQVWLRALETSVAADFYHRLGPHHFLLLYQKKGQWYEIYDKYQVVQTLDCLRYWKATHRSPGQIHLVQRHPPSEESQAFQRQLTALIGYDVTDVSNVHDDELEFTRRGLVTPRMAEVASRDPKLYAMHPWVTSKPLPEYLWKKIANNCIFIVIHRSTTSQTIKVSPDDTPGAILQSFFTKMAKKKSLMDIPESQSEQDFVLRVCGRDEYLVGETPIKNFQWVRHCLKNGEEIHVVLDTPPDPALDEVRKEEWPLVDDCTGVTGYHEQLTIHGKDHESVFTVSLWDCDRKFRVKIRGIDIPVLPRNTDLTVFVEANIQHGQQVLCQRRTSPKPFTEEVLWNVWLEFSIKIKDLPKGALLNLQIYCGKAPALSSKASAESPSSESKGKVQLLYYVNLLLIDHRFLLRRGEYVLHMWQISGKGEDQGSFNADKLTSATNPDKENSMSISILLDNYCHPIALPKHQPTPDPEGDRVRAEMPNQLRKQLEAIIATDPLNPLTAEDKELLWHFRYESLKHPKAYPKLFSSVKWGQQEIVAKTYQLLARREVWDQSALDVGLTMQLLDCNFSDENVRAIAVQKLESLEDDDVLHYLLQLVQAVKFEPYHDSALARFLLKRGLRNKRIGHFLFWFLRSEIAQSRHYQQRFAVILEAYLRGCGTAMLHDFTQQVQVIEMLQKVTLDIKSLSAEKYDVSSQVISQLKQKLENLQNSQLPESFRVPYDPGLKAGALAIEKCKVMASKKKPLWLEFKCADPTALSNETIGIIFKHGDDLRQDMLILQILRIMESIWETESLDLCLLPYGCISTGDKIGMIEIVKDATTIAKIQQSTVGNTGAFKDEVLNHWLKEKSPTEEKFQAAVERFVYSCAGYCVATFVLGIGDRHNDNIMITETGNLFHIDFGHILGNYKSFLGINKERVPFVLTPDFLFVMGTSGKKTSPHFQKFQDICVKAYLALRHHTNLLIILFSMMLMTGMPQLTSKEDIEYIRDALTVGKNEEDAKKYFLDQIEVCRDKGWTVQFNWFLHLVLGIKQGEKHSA

`COc1ccc(-c2cc3c(C)nc(N)nc3n([C@H]3CC[C@H](OCCO)CC3)c2=O)cn1` [PF-04691502] displayed an IC50 in the data set with U-87 MG of 340 nM.

In data set [1], `COc1ncc(-c2cc3c(C)nc(NC(C)=O)nc3s2)cc1NS(=O)(=O)c1ccc(F)cc1F` gave an IC50 of 11 nM. For the same compound, the Papp at 5 h in data set [2] is 9.6 ×10⁻⁶ cm/s.

Regarding `COc1ncc(-c2cc3c(C)nc(N)nc3s2)cc1NS(=O)(=O)c1ccc(F)cc1F`, in data set [2], the Papp at 5 h worked out at 4.8 ×10⁻⁶ cm/s.
